# Results published in patent publication US20080207748A1, “VITAMIN C PREPARATION” (INNOVATION LABS, INC., priority 2007, published 2008).
# What was measured:
# [1] = test system: human T-lymphoblastic H9 cell line; assay: Inhibition of PHA- or bifenthrin-induced homotypic T-lymphocyte aggregation; format: cell-based; details: H9 cells, 0.5 μM vitamin C form, 30 minutes at 37° C.; for homotypic aggregation (aggregate size), activator: None: no activator
# Method: The ability to inhibit pesticide-induced T-lymphocyte aggregation was determined for the formulation of Example 1 and other vitamin C formulations.
# The human T-lymphoblastic H9 cell line was incubated with vehicle (-) or with one of two activators of T-lymphocyte aggregation, phytohemagglutinin (PHA; […]) or bifenthrin ([…]). […] After treatment, the ability of each formulation to inhibit homotypic aggregation was measured by counting aggregate size at 400× magnification.
# [2] = Human serum vitamin C levels after single oral dose; format: in vivo
# Method: (§1) The human serum vitamin C, plasma C-reactive protein, oxidized LDL, and urine uric and oxalate levels were determined for the formulation of Example 1 and other vitamin C formulations.
# (§2) Healthy volunteers maintained a low vitamin C diet for 14 days. […] Blood samples were collected immediately prior to the oral dose administration and at various time points post ingestion. Urine was collected over a 24-hour time period and saved for oxalate and uric acid assays. Serum vitamin C levels were measured by HPLC with coulometric electrochemical detection. Plasma C-reactive protein and oxidized LDL were measured by enzyme linked immunosorbent assay (ELISA) and urine uric acid and oxalate levels were measured by enzymatic methods.
# [3] = test system: Plasma C-Reactive Protein; assay: Human plasma C-reactive protein after single oral dose; format: in vivo; details: for Plasma C-Reactive Protein Change: 0 vs 24 hrs
# Method: as §1, §2
# Plasma OxLDL = assay: Human plasma oxidized LDL after single oral dose; format: in vivo; details: for Plasma OxLDL Change: 0 vs 24 hrs
# Method: as §1, §2
# [4] = Human urine uric acid after single oral dose; format: in vivo; details: single oral dose 1000 mg, urine collected over 24 hours
# Method: as §1, §2
# [5] = Human urine oxalate after single oral dose; format: in vivo; details: single oral dose 1000 mg, urine collected over 24 hours
# Method: as §1, §2
# [6] = test system: H9 cells, a human T-cell line; assay: Vitamin C absorption (uptake) in H9 cells; format: cell-based; details: 50 μM
# Method: The rate of vitamin C absorption in H9 cells, a human T-cell line, was determined for the formulation of Example 1 and other vitamin C formulations.
# At the times indicated in FIG. 1, cells were harvested and measured for vitamin C and protein content. The cellular vitamin C levels of the cells were measured using the 2,4-dinitrophenylhydrazine spectrophotometric technique (Bessey et al., 1947).
# [7] = 0 hrs (immediately prior to oral dose)
# [8] = single oral dose 1000 mg, 24 hrs
Molecule,"homotypic aggregation (aggregate size), activator: PHA [1]","homotypic aggregation (aggregate size), activator: Bifenthrin [1]","homotypic aggregation (aggregate size), activator: None [1]",Serum Vitamin C Levels ([2]; 0 hrs (immediately prior to single oral dose of 1000 mg)) [mg/dL],"Serum Vitamin C Levels ([2]; single oral dose 1000 mg, 1 hr post-admin) [mg/dL]","Serum Vitamin C Levels ([2]; single oral dose 1000 mg, 2 hrs post-admin) [mg/dL]","Serum Vitamin C Levels ([2]; single oral dose 1000 mg, 4 hrs post-admin) [mg/dL]","Serum Vitamin C Levels ([2]; single oral dose 1000 mg, 6 hrs post-admin) [mg/dL]","Serum Vitamin C Levels ([2]; single oral dose 1000 mg, 24 hrs post-admin) [mg/dL]","Plasma C-Reactive Protein [3, 7] [ng/mL]",Plasma C-Reactive Protein Change [3] [ng/mL],"Plasma C-Reactive Protein [3, 8] [ng/mL]",Plasma OxLDL (Plasma OxLDL; [7]) [U/ml],Plasma OxLDL Change (Plasma OxLDL) [U/ml],Plasma OxLDL (Plasma OxLDL; [8]) [U/ml],Urine Markers: Uric Acid [4] [mg/dL],Urine Markers: Oxalate [5] [mg/dL],cellular vitamin C levels (peak) ([6]; at approximately two hours) [nmol/mg protein],cellular vitamin C levels ([6]; at fifteen minutes) [nmol/mg protein]
calcium ascorbate [CaA],110 ± 10,137 ± 8,12 ± 4,0.50 ± 0.05,0.88 ± 0.10,1.12 ± 0.17,1.03 ± 0.13,1.0 ± 0.13,0.59 ± 0.09,189.17 ± 41,8.34,180.83 ± 43,60.56 ± 5,3.78,57.67 ± 6,39.75 ± 10.5,17.8 ± 2.6,,
"O=C1O[C@H]([C@@H](O)CO)C(O)=C1O [AA, ascorbic acid]",75 ± 12,130 ± 5,9 ± 4,,,,,,,129.75 ± 26,12.75,117.00 ± 33,,0.89,,,,31,7±1.4
